Key:
log P (pH 2.3) = assay type: physicochemical
Tetranychus urticae = experiment: Tetranychus test; OP-resistant (TETRUR spray treatment); assay type: in vivo; conditions: active compound concentration 100 g/ha, sprayed bean leaf disks (Phaseolus vulgaris), all stages of spider mite
Protocol: Tetranychus Test; OP-Resistant (TETRUR Spray Treatment)
To produce a suitable preparation of active compound, 1 part by weight of active compound is mixed with the stated amounts of solvents and emulsifier, and the concentrate is diluted with emulsifier-containing water to the desired concentration.
Disks of bean leaves (Phaseolus vulgaris) which are infested by all stages of the greenhouse red spider mite (Tetranychus urticae) are sprayed with an active compound preparation of the desired concentration.
After the desired period of time, the effect in % is determined. 100% means that all spider mites have been killed; 0% means that none of the spider mites have been killed.

Spodoptera frugiperda = Spodoptera frugiperda test (spray treatment); assay type: in vivo; conditions: for Kill rate in % after 7d: active compound concentration 500 g/ha, sprayed corn leaf disks (Zea mays), caterpillars
Protocol: Spodoptera frugiperda Test (Spray Treatment) [table] To produce a suitable preparation of active compound, 1 part by weight of active compound is mixed with the stated amounts of solvents and emulsifier, and the concentrate is diluted with emulsifier-containing water to the desired concentration. Disks of corn leaves (Zea mays) are sprayed with an active compound preparation of the desired concentration and, after drying, populated with caterpillars of the armyworm (Spodoptera frugiperda). After the desired period of time, the effect in % is determined. 100% means that all caterpillars have been killed; 0% means that none of the caterpillars have been killed.

Row | SMILES | logP (log P (pH 2.3)) | Kill rate in % after 7d (Spodoptera frugiperda) [%] | other results
1 | COc1c(Cl)cc(OCC=C(Cl)Cl)cc1-c1nnc(CCCOCc2ccccc2)s1 [2-(3-benzyloxypropyl)-5-[3-chloro-5-(3,3-dichloroallyloxy)-2-methoxyphenyl]-[1,3,4]thiadiazole] | 5.67 | – | –
2 | COc1c(Cl)cc(OCC=C(Cl)Cl)cc1C1=NOC(CCCOc2cccc3c2OC(C)(C)C3)C1 (stereo not shown) [drawing 46] | – | – | Kill rate in % after 7d (Tetranychus urticae): 90%
3 | CO/N=C/c1ccc(OCCCC2CC(c3cc(OCC=C(Cl)Cl)cc(Cl)c3OC)=NO2)cc1 (stereo not shown) | – | 100 | –
4 | COc1c(Cl)cc(OCC=C(Cl)Cl)cc1C1=NOC(CCCOc2ccc(N3CCCC3=O)cc2)C1 (stereo not shown) | – | 100 | –
5 | CCn1nnc(-c2ccc(OCCCC3CC(c4cc(OCC=C(Cl)Cl)cc(Cl)c4OC)=NO3)cc2)n1 (stereo not shown) | – | 100 | –
6 | COc1c(Cl)cc(OCC=C(Cl)Cl)cc1C(=O)NNC(=O)CCCOCc1ccccc1 [3-chloro-5-(3,3-dichloroallyloxy)-2-methoxybenzoic acid N′-(4-benzyloxybutyryl)hydrazide] | 3.79 | – | –
7 | COc1c(Cl)cc(OCC=C(Cl)Cl)cc1C1=NC(CO)CO1 (stereo not shown) [{2-[3-chloro-5-(3,3-dichloroallyloxy)-2-methoxyphenyl]-4,5-dihydrooxazol-4-yl}methanol] | 2.05 | – | –
8 | COc1c(Cl)cc(OCC=C(Cl)Cl)cc1C1=NOC(CCCOc2cccc3c2OC(C)(C)C3)C1 (stereo not shown) [drawing 44] | – | 100 | –
9 | COc1c(Cl)cc(OCC=C(Cl)Cl)cc1C1=NOC(CCCOc2ccc3c(c2)CCCC3=O)C1 (stereo not shown) | – | 100 | –
10 | CCn1nnc(-c2ccc(OCCCC3CC(c4cc(OCC=C(Cl)Cl)cc(Cl)c4OC)=NO3)cc2)n1 (racemic) [Example I-1] | – | – | activity in Spodoptera frugiperda test (Spodoptera frugiperda; spray treatment, result in words): good activity
